GI50 and TGI data for seven compounds are collected here from PubChem BioAssay (NCI).

Common to all, as to experiment: inhibition of tumour cell growth, NCI panel, 48 h
Test [1] relates to SK-OV-3 ovarian.
Test [2] has as its system CAKI-1 renal.
For test [3], the system named is DU-145 prostate.
The subject of test [4] is SNB-19 CNS.
Test [5] relates to SK-MEL-2 melanoma.
Test [6] deals with HOP-92 NSCLC.
Test [7] relates to SF-268 CNS.
In test [8] the test system is RPMI-8226 leukemia.
Test [9] relates to CCRF-CEM leukemia.
In test [10] the test system is SW-620 colon.

Structures are written as SMILES.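 Five compound concentrations were applied to cells in 96-well plates for 48 hours; endpoints were derived by simple linear interpolation of the resulting dose-response curve. The concentration for 50% growth inhibition is given as GI50. TGI: total growth inhibition.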 Some results are limits rather than exact numbers.

Turning to `COc1cc(/C=C/C(=O)c2cccc(-n3cc(-c4ccc(Cl)cc4)[nH]c3=O)c2)cc(OC)c1OC`, the GI50 is 31.4 µM in test [1]; 15.6 µM in [2]; 4.53 µM in [3]; 16.1 µM in [4]; 3.44 µM in test [5]; above 100 µM in [6]. Also, the GI50 in test [7] is 5.07 µM; in test [8], 3.92 µM; in [9], 5.43 µM; in [10], 1.75 µM. The TGI is above 100 µM in test [1]; 95.5 µM in test [2]; 27 µM in test [3]; 37 µM in test [4]; 12.5 µM in [5]; above 100 µM in test [6]. The TGI in test [7] was 39.2 µM; in [8], above 100 µM; in test [9] it was above 100 µM; in test [10], 3.17 µM.
In the case of `c1ccc2c(c1)Nc1ccncc1S2`, the GI50 in test [1] is 37 µM; in test [2] it was 11.4 µM; in [3], 32.3 µM; in test [4] it was 25.7 µM; in test [5], 13.6 µM; in test [6], 8.07 µM. Further, the GI50 in test [7] was 24.5 µM; in test [8] it was 17 µM; in test [9] it was 28.2 µM; in test [10] it was 21.2 µM. Further, the TGI is above 100 µM in [1]; 56 µM in test [2]; above 100 µM in [3]; above 100 µM in test [4]; 36.7 µM in test [5]; 71.6 µM in test [6]. The TGI is above 100 µM in test [7], 78.1 µM in test [8], above 100 µM in [9] and 92.6 µM in [10].
Consider `CCC1(O)C(=O)OCc2c1cc1n(c2=O)Cc2cc3c(NC(=O)CN)cccc3nc2-1` (stereo not drawn), for which the GI50 was 0.377 µM in test [1]; 0.205 µM in test [2]; 0.348 µM in test [3]; 0.492 µM in [4]; 9.74 µM in [5]; 2.47 µM in [6]. Besides, the GI50 in [7] was 0.191 µM; in [8], 1.69 µM; in [9] it was 0.0208 µM; in test [10], 1.75 µM. Also, the TGI in test [1] was 31.3 µM; in [2], 8.37 µM; in test [3] it was above 20.2 µM; in test [4], above 100 µM; in [5], 41.1 µM; in [6], 24.1 µM. For the same compound, the TGI is 46.5 µM in test [7], 40.3 µM in test [8], 1.43 µM in test [9] and 97.9 µM in test [10].
On to `CCc1cccc(C)c1NC(=O)c1sc2nc3c(cc2c1N)C(=O)CCC3`, for which the GI50 was 0.541 µM in test [1]; 0.537 µM in [2]; 0.514 µM in [3]; 0.918 µM in [4]; 0.365 µM in [5]; 0.644 µM in [6]. Besides, the GI50 was 3.06 µM in [7], 1.06 µM in test [8], 0.407 µM in test [9] and 0.4 µM in [10]. Moreover, the TGI in test [1] is above 100 µM; in test [2], above 100 µM; in [3], above 100 µM; in [4], above 100 µM; in test [5], 27.3 µM; in test [6], 74.7 µM. Moreover, the TGI in test [7] is above 100 µM; in test [8], above 24 µM; in [9], above 35.4 µM; in test [10], above 100 µM.
Regarding `O=C(/C=C/c1cccc(O)c1)c1cccc(-n2cc(-c3ccccc3)[nH]c2=O)c1`, the GI50 was 12.3 µM in [1]; 4.95 µM in test [2]; 3.15 µM in test [3]; 6.58 µM in [4]; 6.23 µM in [5]; 3.57 µM in [6]. The GI50 in [7] is 3.66 µM; in [8], 2.16 µM; in [9], 3.1 µM; in test [10] it was 2.13 µM. In addition, the TGI in test [1] turned out to be 25 µM; in test [2], 10.5 µM; in test [3] it was 10.3 µM; in test [4], 18.6 µM; in test [5], 24.7 µM; in test [6], 13.8 µM. Moreover, the TGI in test [7] is 12.3 µM; in [8], 6.33 µM; in test [9], above 41.1 µM; in [10], 4.74 µM.
As for `COC(=O)c1cc2c(cc1Cl)SC1=NN(C)C(N(C)C)N1S2(=O)=O` (stereo not drawn), the GI50 in test [1], in test [2], in test [3], in [4], in [5] and in test [6] was above 100 µM throughout. Besides, the GI50 in test [7], in test [8], in [9] and in test [10] was above 100 µM each time. For the same compound, the TGI in test [1], in [2], in [3], in test [4], in [5] and in test [6] was above 100 µM throughout. The TGI in test [7], in [8], in [9] and in test [10] was above 100 µM in each case.
On to `COC1C(O)C(CO)OC(OC2C(O)COC(OC3C(C)OC(OC4C(O[C@H]5CC[C@@]6(C)C(CC=C7[C@H]6CCC68C(=O)O[C@@](C)(CCCC(C)C)[C@H]6[C@@H](OC(C)=O)C[C@@]78C)C5(C)C)OCC(OS(=O)(=O)O)C4O)C(OC4OCC(O)C(O)C4O)C3O)C2O)C1O` (stereo partly drawn), for which the GI50 in test [2] was 0.303 µM; in test [3] it was 0.209 µM; in [4], 0.149 µM; in test [5] it was 0.233 µM; in [6], 0.0934 µM; in test [7] it was 0.199 µM. For the same compound, the GI50 in [8] was 0.163 µM; in [9], 0.225 µM; in [10] it was 0.0952 µM. The TGI in test [2] is 0.922 µM; in test [3], 0.656 µM; in test [4], 0.374 µM; in test [5], 2.47 µM; in test [6], 0.842 µM; in [7] it was 0.685 µM. Further, the TGI in test [8] amounted to 0.402 µM; in test [9] it was 0.775 µM; in test [10] it was 0.272 µM.
